{
  "source": "patent US4626271A",
  "about": "“Cyanobacterin herbicide” (priority 1985, dated 1986)",
  "key": {"[1]": {"test_system": "Lemna gibba, L.minor and Lemna 6746 (Duckweed)", "assay": "Use against aquatic plants (frond multiplication, toxicity)", "type": "in vivo", "description": "The effect of cyanobacterin was initially tested on the aquatic angiosperms, Lemna gibba, L.minor and Lemna 6746 (Duckweed). Cyanobacterin stopped frond multiplication at a minimum dose of 0.5 μg per ml of growth medium (1.1 μM). The plants recovered after about 7-12 days. Presumably, this is due to degradation of the cyanobacterin over time which drops the dosage below the minimum. At a concentration of 1.0 μg/ml (2.3 μM), cyanobacterin is toxic to Lemna. The plants generally appear normal for 10-15 days after which the roots fall off and the leaves become chlorotic."}, "[2]": {"test_system": "Zea Mays of the hybrid variety Goldencross Bantam", "assay": "Spray treatment of sweet corn", "type": "in vivo", "conditions": "1.0 milligrams, Example I composition", "description": "(§1) 10 mg of cyanobacterin dissolved in lml. of ethyl ether was mixed with 0.1 ml of the Science \"Sticker\" of Science Products, Co., which contains about 77% Triton B-1956 brand surfactant. 10 ml of water was added and mixed. After mixing for about 30 minutes to allow the ether to evaporate, the composition was ready to apply to plants.\n(§2) A variety of green plants were treated with a cyanobacterin solution prepared in accordance with Example I above. An atomizer was used to spray the plants with a fine spray. Before placing the fluid into an atomizer, the solution was measured and then remeasured after application on the plants.\n(§3) A control solution of 0.1 ml of sticker-ether in 10 ml of distilled water was applied to the control plants. These plants were treated in the same manner as in the cyanobacterin application and measured in the same way. Plants were cut off at the soil line and dried for 16 hours at 110° C.\nZea Mays of the hybrid variety Goldencross Bantam was tested with one plant per pot. A total of nine control plants were used and 14 plants were treated with the cyanobacterin composition of Example I. The plants were treated once, 8 days after germination. After growing for a total of 15 days after treatment, the plants were cut off at the soil line and the dry weight was determined. A control plant dry weight was 227.4 milligrams and the cyanobacterin treated plant dry weight was 59.4 milligrams. The amount of cyanobacterin utilized was 1.0 milligrams."}, "[3]": {"test_system": "Pisum sativum, var. Little Marvel", "assay": "Spray treatment of pea", "type": "in vivo", "description": "as §1, §2, §3\nPisum sativum, var. Little Marvel, plants were tested at a rate of 1 and 2 plants per pot. With one plant per pot, a total of nine control plants were used and 12 cyanobacterin treated plants were utilized. With 2 plants per pot, one control plant was utilized and 2 cyanobacterin treated plants were utilized. The plants were treated 8 and 6 days after germination respectively, with the cyanobacterin compound of Example I. The pots containing 1 plant per pot were treated with 1.5 milligrams and the pots containing 2 plants were treated with 0.6 milligrams of the cyanobacterin compound. The control plant dry weight of a single plant per pot plants after the fifteen days of growth was 363.8 milligrams and 194.9 milligrams for the cyanobacterin treated plant dry weight."}, "[4]": {"test_system": "Rumex crispus", "assay": "Spray treatment of curled dock", "type": "in vivo", "conditions": "for treated plant dry weight: fifteenth day", "description": "as §1, §2, §3\nRumex crispus was grown at a rate of 10 plants or more per pot. A total of 5 control pots were used and 5 pots were treated with the cyanobacterin containing compound of Example I. Seven days after germination the plants were treated with 1.45 milligrams of cyanobacterin. […] By the 9th day, half the plants were dead and half were chlorotic. […] The control plant dry weight at the fifteenth day was 453.3 milligrams and the cyanobacterin dry weight was 93.1 milligrams.\nCurled dock plants were also treated with 0.5 milligrams of cyanobacterin. The plants were treated with the cyanobacterin compound 8 days after germination. On the 7th day after treatment, many of the plants were dead and others were chlorotic."}, "[5]": {"test_system": "Polygonium convolvulus", "assay": "Spray treatment of wild buckwheat", "type": "in vivo", "conditions": "for treated plant dry weight: fifteenth day", "description": "as §1, §2, §3\nPolygonium convolvulus plants were raised at a rate of over 10 plants per pot. Five control pots were used and 5 pots were treated with the cyanobacterin containing compound of the invention.\nThe first plants treated were treated 2 days after germination with 0.29 milligrams of the cyanobacterin. The control plant dry weight at the fifteenth day was 92.4 milligrams and the cyanobacterin treated dry weight was 59.1 milligrams. The second group of plants were treated 4 days after germination with 0.5 milligrams of cyanobacterin."}, "[6]": {"test_system": "Avena fatua", "assay": "Spray treatment of wild oats", "type": "in vivo", "description": "as §1, §2, §3\nAvena fatua plants were grown at a rate of over 10 plants per pot. A total of 5 control pots were used and 5 cyanobacterin treated pots were utilized.\nThree separate concentrations of cyanobacterin were utilized. In group 1 the plants were treated 3 days after germination with 0.44 milligrams of the cyanobacterin. […] A second group were treated with 0.6 milligrams of cyanobacterin two weeks after germination. […] The third group of plants were treated with 1.05 milligrams of cyanobacterin 7 days after germination."}, "[7]": {"test_system": "Setaria viridis", "assay": "Spray treatment of green foxtail", "type": "in vivo", "conditions": "for treated plant dry weight: fifteenth day", "description": "as §1, §2, §3\nSetaria viridis plants were grown at a rate of over 10 per pot. A total of 5 control pots were used and 5 cyanobacterin treated pots were utilized. Two concentrations of cyanobacterin were utilized. In the first group 0.5 milligrams of cyanobacterin was applied to plants 8 days after germination. The control plant dry weight on the fifteenth day after cutting was 365.8 milligrams and the cyanobacterin treated plant dry weight was 176.3 milligrams. A second group of plants was treated with 2.8 milligrams of cyanobacterin 7 days after germination."}, "[8]": {"assay": "Application to the soil", "type": "in vivo", "text": "(§4) Cyanobacterin, when applied to the soil had no effect. […] Also, it may not be transported through the root vascular system. The Hill reaction is inhibited by cyanobacterin as shown by the use of photosynthetically active pea chloroplasts."}, "[9]": {"test_system": "photosystem II", "assay": "Hill reaction / oxygen evolution in pea chloroplasts", "type": "biochemical", "text": "It is theorized that cyanobacterin acts on green plants by specifically binding to some component of the photosynthetic electron transport system.\nas §4"}, "[10]": {"assay": "Hydrophobicity", "type": "physicochemical"}, "[11]": {"assay": "Herbicidal effect, amount relative to plant dry weight", "type": "in vivo", "conditions": "by dry weight", "text": "The composition may be formulated from high purity cyanobacterin or from crude extracts obtained from the blue-green algae since high purity is not required. […] Additionally, the composition may be formulated from a synthetic cyanobacterin, such as the racemic mixture described by T. T. Jong et al, \"Total synthesis and X-ray structure determination of cyanobacterin\", J. Org. Chem. 49:735-736(1984)."}, "[12]": {"test_system": "cell growth", "assay": "Biological activity / cell growth of the anhydro analog", "type": "cell-based", "text": "The cyanobacterin used in this invention may be obtained from Scytonema hofmanni (UTEX 2349 University of Texas Collection, Austin, Tex.) cells. Cyanobacterin is a diaryl substituted gamma-ylidene, gamma-butyro lactone with a chlorine substituent on one of the aromatic rings. […] This compound results from dehydration of the parent compound: [drawing 1]\nIt has been postulated by the inventor that a hydrophilic constituent on the lactone ring is crucial to the activity of cyanobacterin and may be involved in protein binding."}, "[13]": {"test_system": "cyanobacterial spheroplast system", "assay": "Activity in a cyanobacterial spheroplast system", "type": "cell-based", "text": "(§5) Synthetic cyanobacterin such as the racemic mixture prepared by Jong T. T. et al in J. Org."}, "[14]": {"test_system": "whole cell growth", "assay": "Whole cell growth measurements, long term studies", "type": "cell-based", "text": "as §5"}},
  "note": "Several values for one entry are separate records, joined by “and”; a condition that tells them apart may be missing. Equal values may be shown once.",
  "data": [
    {"smiles": "COc1ccc(/C=C2\\OC(=O)C(Cc3cc(Cl)c4c(c3)OCO4)C2(O)C(C)C)cc1", "note": "(stereo not drawn) [cyanobacterin]", "values": [
      {"measurement": "plant condition by 30 days", "setting": "[1]; 1.0 μg/ml or greater, purified cyanobacterin", "result": "most plants treated with 1.0 μg/ml or greater concentrations of purified cyanobacterin were dead"},
      {"measurement": "time until plants recovered", "setting": "[1]; at minimum dose 0.5 μg per ml", "result": "7 to 12", "unit": "days"},
      {"measurement": "minimal effective concentration", "setting": "[1]; in growth medium, read-out: minimum dose that stopped frond multiplication", "result": "0.5 µg/mL and 1.1 µM"},
      {"measurement": "plant condition by the fifteenth day", "setting": "[2]", "result": "dead"},
      {"measurement": "plant condition on the ninth day after treatment", "setting": "[2]", "result": "no new growth"},
      {"measurement": "treated plant dry weight", "setting": "[2]; treated once 8 days after germination, 15 days after treatment, control 227.4 milligrams", "result": 59.4, "unit": "milligrams"},
      {"measurement": "plant condition on the 15th day", "setting": "[3]; 0.6 to 1.5 milligrams per plant", "result": "all of the cyanobacterin treated plants were dead"},
      {"measurement": "treated plant dry weight", "setting": "[3]; 1 plant per pot, 1.5 milligrams, treated 8 days after germination, fifteen days of growth, control 363.8 milligrams", "result": 194.9, "unit": "milligrams"},
      {"measurement": "treated plant dry weight", "setting": "[3]; 2 plants per pot, 0.6 milligrams, treated 6 days after germination, control 169.8 milligrams", "result": 101.4, "unit": "milligrams"},
      {"measurement": "plant condition by the 15th day", "setting": "[4]; 0.5 milligrams", "result": "half of the plants were dead, one-quarter were chlorotic and one-quarter were large, green and healthy like the control"},
      {"measurement": "treated plant dry weight", "setting": "[4]; 0.5 milligrams, 8 days after germination, control 451.9 milligrams", "result": 239.1, "unit": "milligrams"},
      {"measurement": "plant condition by the 15th day", "setting": "[4]; 1.45 milligrams", "result": "all were dead except for a few"},
      {"measurement": "treated plant dry weight", "setting": "[4]; 1.45 milligrams, seven days after germination, control 453.3 milligrams", "result": 93.1, "unit": "milligrams"},
      {"measurement": "treated plant dry weight", "setting": "[5]; 0.29 milligrams, 2 days after germination, control 92.4 milligrams", "result": 59.1, "unit": "milligrams"},
      {"measurement": "treated plant dry weight", "setting": "[5]; 0.5 milligrams, 4 days after germination, control 157.8 milligrams", "result": 59.1, "unit": "milligrams"},
      {"measurement": "plant condition by the 15th day", "setting": "[5]; either concentration (0.29 or 0.5 milligrams)", "result": "Only a few of the cyanobacterin treated plants were dead"},
      {"measurement": "treated plant dry weight", "setting": "[6]; 0.44 milligrams, 3 days after germination, fifteen days after treatment, control 154.6 milligrams", "result": 115.5, "unit": "milligrams"},
      {"measurement": "plant condition at the end of the experiment", "setting": "[6]; 0.44 to 1.05 milligrams", "result": "stressed but overall were still green and growing"},
      {"measurement": "treated plant dry weight", "setting": "[6]; 0.6 milligrams, two weeks after germination, fifteen days after treatment, control 328.5 milligrams", "result": 79.5, "unit": "milligrams"},
      {"measurement": "treated plant dry weight", "setting": "[6]; 1.05 milligrams, 7 days after germination, fifteenth day, control 489.6 milligrams", "result": 155.8, "unit": "milligrams"},
      {"measurement": "treated plant dry weight", "setting": "[7]; 0.5 milligrams, 8 days after germination, control 365.8 milligrams", "result": 176.3, "unit": "milligrams"},
      {"measurement": "plant condition at approximately the 9th day after treatment", "setting": "[7]; 0.5 or 2.8 milligrams", "result": "approximately half of the plants had died"},
      {"measurement": "treated plant dry weight", "setting": "[7]; 2.8 milligrams, 7 days after germination, control 411.7 milligrams", "result": 217.7, "unit": "milligrams"},
      {"measurement": "effect when applied to the soil", "setting": "[8]", "result": "no effect"},
      {"measurement": "electron flow from water to electron acceptors", "setting": "[9]", "result": "inhibits electron flow"},
      {"measurement": "Hill reaction", "setting": "[9]; photosynthetically active pea chloroplasts", "result": "inhibited"},
      {"measurement": "concentration that completely inhibits oxygen evolution", "setting": "[9]; photosynthetically active pea chloroplasts, in the presence of DCPIP", "result": 110, "unit": "nM"},
      {"measurement": "hydrophobicity", "setting": "[10]", "result": "very hydrophobic"},
      {"measurement": "amount effective as a herbicide relative to plant dry weight", "setting": "[11]", "result": "one part of the cyanobacterin to 450 parts of the plant"}
    ]},
    {"smiles": "COc1ccc(/C=C2\\OC(=O)C(Cc3cc(Cl)c4c(c3)OCO4)=C2C(C)C)cc1", "note": "[anhydrocyanobacterin]", "values": [
      {"measurement": "biological activity", "setting": "[12]", "result": "no biological activity"},
      {"measurement": "effect on cell growth", "setting": "[12]", "result": "no effect on cell growth"}
    ]},
    {"smiles": "COc1ccc(/C=C2\\OC(=O)C(Cc3cc(Cl)c4c(c3)OCO4)C2(O)C(C)C)cc1", "note": "(racemic) [Synthetic cyanobacterin]", "values": [
      {"measurement": "activity relative to cyanobacterin", "setting": "[13]", "result": "about half the activity of cyanobacterin"},
      {"measurement": "activity relative to cyanobacterin", "setting": "[14]", "result": "the same activity"}
    ]}
  ]
}
